Experimental data published in patent publication US11135252B2, “Probiotic therapies for developmental disorders and other neurological disorders” (Baylor College of Medicine, priority 2016, dated 2021).

Experiments:
Cntnap2-deficient mice [1] = experiment: Social behavior (sociability, social novelty) in Cntnap2-deficient mice; format: in vivo
Description: (§1) Crawley's three-chamber test for sociability and preference for social novelty was performed as described (Silverman et al., 2010). In brief, the mouse first experienced a 10-minute period of habituation during which it was allowed to freely explore a 60×40×23 cm Plexiglass arena divided into three equally sized, interconnected chambers (Left, Center, Right). Sociability was measured during a second ten-minute period in which the subject could interact either with an empty wire cup (Empty) or a wire cup containing an age and sex-matched stranger conspecific (Mouse 1). Time spent interacting (sniffing, crawling upon) with either the empty cup or the stranger mouse contained in the other cup as well as time spent in each chamber was recorded using the AnyMaze software, by independent observers. Empty cup placement in the Left or Right chamber during the Sociability period was counterbalanced between trials. Finally, preference for social novelty was assayed by introducing a second stranger mouse (Mouse 2) into the previously the empty wire cup. Time spent in each chamber as well as time spent interacting with either Mouse 1 or Mouse 2 was recorded using the automated AnyMaze software by independent observers.
To examine whether treatment with L. reuteri could restore ASD-like behaviors in genetic models of ASD, we studied mice lacking contactin associated protein-like 2 (CNTNAP2). Mutations in CNTNAP2 have been associated with syndromic forms of ASD (Nascimento, et al., 2016; Yoo, et al., 2017; Zare, et al., 2017; el-Sobky, et al., 2004; Alarcon, et al., 2008; Sampath, et al., 2013; Chiocchetti, et al., 2015), thereby serving as a genetic model of autism in mice. Second, mice lacking Cntnap2 show ASD-like behaviors (Penagarikano, et al.).

MRD offspring = experiment: Three-chamber social test in MRD offspring; format: in vivo, mice; conditions: in drinking water
Description: Crawley's three-chamber test for sociability and preference for social novelty was performed as described (Silverman et al., 2010). In brief, the mouse first experienced a 10-minute period of habituation during which it was allowed to freely explore a 60×40×23 cm Plexiglass arena divided into three equally sized, interconnected chambers (Left, Center, Right). Sociability was measured during a second ten-minute period in which the subject could interact either with an empty wire cup (Empty) or a wire cup containing an age and sex-matched stranger conspecific (Mouse 1). Time spent interacting (sniffing, crawling upon) with either the empty cup or the stranger mouse contained in the other cup as well as time spent in each chamber was recorded using the AnyMaze software, by independent observers. Empty cup placement in the Left or Right chamber during the Sociability period was counterbalanced between trials. Finally, preference for social novelty was assayed by introducing a second stranger mouse (Mouse 2) into the previously the empty wire cup. Time spent in each chamber as well as time spent interacting with either Mouse 1 or Mouse 2 was recorded using the automated AnyMaze software by independent observers. Lactobacillus reuteri MM4-1A (ATCC-PTA-6475) and Lactobacillus johnsonii (ATCC 33200) were cultured anaerobically in MRS broth in a 90% N2, 5% CO2, 5% H2 environment. L. reuteri was heat-killed by keeping the bacteria at 80° C. for 20 minutes (Wang et al., 2010). Bacterial viability was assessed by plating and the efficacy of the heat-kill procedure was confirmed by the absence of colony growth following plating. Cultures were centrifuged, washed, and resuspended in anaerobic solution (PBS) and frozen at −80° C. until use. PBS, live or heat-killed L. reuteri were added to the drinking water, which was changed daily to minimize dosage variability. Whereas the experimental group received live bacteria, one control group received identically prepared cultures of heat-killed bacteria. A second group of control mice received water treated with PBS alone. […]

GF mice = experiment: Three-chamber social test in germ-free mice treated with L. reuteri; format: in vivo
Description: C57Bl6/J mice were obtained from Jackson Laboratories (#000-664) and were kept on a 12 h light/dark cycle and had access to food and water ad libitum. Females were placed on either a regular diet (RD) consisting of 13.4% kcal from fat, 30% kcal from protein, and 57% kcal from carbohydrates (Lab Diets, #5001) or high fat diet (HFD) consisting of 60% kcal from fat, 20% kcal from protein, and […] kcal from carbohydrates (Research Diets, #D12492). Maternal weight was measured weekly. Maternal total and fat mass were measured using an mq7.5 Minispec NMR body composition analyzer. After eight weeks on diet, females were paired with C57B16/J adult males to produce subject offspring. Resulting offspring were weaned at three weeks of age and all placed on RD, regardless of maternal diet (MRD or MHFD). Germ-free mice (C57B16/J) were maintained in a flexible isolator fed with HEPA-filtered air and provided with irradiated food and water. Germ-free offspring were weaned at four weeks of age. All behavioral tests were performed on 7-12-week-old male mice.
as §1, with “observers. […]” for “observers. Empty cup placement in the Left or Right chamber during the Sociability period was counterbalanced between trials. Finally, preference for social novelty was assayed by introducing a second stranger mouse (Mouse 2) into the previously the empty wire cup.”, “observers. […]” for “observers.”

Cntnap2-deficient mice [2] = conditions: mice lacking Cntnap2; oxytocin (Penagarikano et al., 2015; 2011); cited from earlier work
[3] = mice lacking Cntnap2, L. reuteri in drinking water

## Lactobacillus reuteri MM4-1A (ATCC-PTA-6475) [L. reuteri]
Cntnap2-deficient mice [1]; Cntnap2-deficient mice, L. reuteri treatment
  social behavior abnormalities: reverses the social behavior abnormalities
Cntnap2-deficient mice [1]; [3]
  sociability: reverses the deficient sociability
  social novelty: reverses
MRD offspring
  sociability (chamber containing a mouse, FIG. 16A): preferred the chamber containing a mouse
  social behavior: did not change the social behavior
  social novelty (chamber containing Mouse 2, FIG. 16B): preferred
GF mice; L. reuteri in drinking water
  sociability: reverses the deficient sociability
  social novelty: reverses
GF mice; L. reuteri treatment
  social behavior deficits: sufficient to restore the social behavior deficits

## CC[C@H](C)[C@@H]1NC(=O)[C@H](Cc2ccc(O)cc2)NC(=O)[C@@H](N)CSSC[C@@H](C(=O)N2CCC[C@H]2C(=O)N[C@@H](CC(C)C)C(=O)NCC(N)=O)NC(=O)[C@H](CC(N)=O)NC(=O)[C@H](CCC(N)=O)NC1=O [oxytocin]
Cntnap2-deficient mice [2]
  social behavioral abnormalities: rescues the social behavioral abnormalities
